Results taken from patent US20220046923A1, “HERBICIDAL CINNOLINIUM COMPOUNDS” (SYNGENTA CROP PROTECTION AG, priority 2018, published 2022).

Columns and labels:
Experiment in all cases: Post-emergence efficacy, glasshouse spray test
Assay type in all cases: in vivo
Lolium perenne (LOLPE) = conditions: Lolium perenne, post-emergence, 312 h; application rate 1000 g/Ha; evaluated after 13 days; read-out: Control of weed species LOLPE after post-emergence application (100=total damage to plant; 0=no damage to plant)
Experimental: (§1) Seeds of a variety of test species were sown in standard soil in pots. After cultivation for 14 days (post-emergence) under controlled conditions in a glasshouse (at 24/16° C., day/night; 14 hours light; 65% humidity), the plants were sprayed with an aqueous spray solution derived from the dissolution of the technical active ingredient formula (I) in a small amount of acetone and a special solvent and emulsifier mixture referred to as IF50 (11.12% Emulsogen EL360 TM+44.44% N-methylpyrrolidone+44.44% Dowanol DPM glycol ether), to create a 50 g/l solution which was then diluted to required concentration using 0.25% or 1% Empicol ESC70 (Sodium lauryl ether sulphate)+1% ammonium sulphate as diluent. The test plants were then grown in a glasshouse under controlled conditions (at 24/16° C., day/night; 14 hours light; 65% humidity) and watered twice daily. After 13 days the test was evaluated (100=total damage to plant; 0=no damage to plant).
(§2) Ipomoea hederacea (IPOHE), Euphorbia heterophylla (EPHHL), Chenopodium album (CHEAL), Amaranthus palmeri (AMAPA), Lolium perenne (LOLPE), Digitaria sanguinalis (DIGSA), Eleusine indica (ELEIN), Echinochloa crus-galli (ECHCG), Setaria faberi (SETFA)

[1] = tested on: Chenopodium album (CHEAL); conditions: Chenopodium album, post-emergence, 312 h; application rate 1000 g/Ha; evaluated after 13 days; read-out: Control of weed species CHEAL after post-emergence application (100=total damage to plant; 0=no damage to plant)
Experimental: as §1, §2

[2] = tested on: Echinochloa crus-galli (ECHCG); conditions: Echinochloa crus-galli, post-emergence, 312 h; application rate 1000 g/Ha; evaluated after 13 days; read-out: Control of weed species ECHCG after post-emergence application (100=total damage to plant; 0=no damage to plant)
Experimental: as §1, §2

[3] = tested on: Euphorbia heterophylla (EPHHL); conditions: Euphorbia heterophylla, post-emergence, 312 h; application rate 1000 g/Ha; evaluated after 13 days; read-out: Control of weed species EPHHL after post-emergence application (100=total damage to plant; 0=no damage to plant)
Experimental: as §1, §2

[4] = tested on: Amaranthus palmeri (AMAPA); conditions: Amaranthus palmeri, post-emergence, 312 h; application rate 1000 g/Ha; evaluated after 13 days; read-out: Control of weed species AMAPA after post-emergence application (100=total damage to plant; 0=no damage to plant)
Experimental: as §1, §2

Eleusine indica (ELEIN) = conditions: Eleusine indica, post-emergence, 312 h; application rate 1000 g/Ha; evaluated after 13 days; read-out: Control of weed species ELEIN after post-emergence application (100=total damage to plant; 0=no damage to plant)
Experimental: as §1, §2

[5] = tested on: Digitaria sanguinalis (DIGSA); conditions: Digitaria sanguinalis, post-emergence, 312 h; application rate 1000 g/Ha; evaluated after 13 days; read-out: Control of weed species DIGSA after post-emergence application (100=total damage to plant; 0=no damage to plant)
Experimental: as §1, §2

[6] = tested on: Ipomoea hederacea (IPOHE); conditions: Ipomoea hederacea, post-emergence, 312 h; application rate 1000 g/Ha; evaluated after 13 days; read-out: Control of weed species IPOHE after post-emergence application (100=total damage to plant; 0=no damage to plant)
Experimental: as §1, §2

Setaria faberi (SETFA) = conditions: Setaria faberi, post-emergence, 312 h; application rate 1000 g/Ha; evaluated after 13 days; read-out: Control of weed species SETFA after post-emergence application (100=total damage to plant; 0=no damage to plant)
Experimental: as §1, §2

| SMILES | pest or weed control at 1000 g/ha (Lolium perenne (LOLPE)) | pest or weed control at 1000 g/ha [1] | pest or weed control at 1000 g/ha [2] | pest or weed control at 1000 g/ha [3] | pest or weed control at 1000 g/ha [4] | pest or weed control at 1000 g/ha (Eleusine indica (ELEIN)) | pest or weed control at 1000 g/ha [5] | pest or weed control at 1000 g/ha [6] | pest or weed control at 1000 g/ha (Setaria faberi (SETFA)) |
| --- | --- | --- | --- | --- | --- | --- | --- | --- | --- |
| Cc1cc(C)c2n[n+](CCO)cc(C)c2c1 [Compound A117] | 10% | 20% | 20% | 20% | 30% | 60% | 20% | 20% | 30% |
| O=S(=O)(O)CC[n+]1ccc2ccc(-c3ccccc3)cc2n1 [Compound A78] | 0% | 0% | 20% | 40% | 20% | 70% | 50% | 10% | 30% |
| O=C([O-])C[C@H](O)C[n+]1ccc2ccccc2n1 [Compound A74, (3S)-4-cinnolin-2-ium-2-yl-3-hydroxy-butanoate] | 0% | 0% | 0% | 10% | 0% | 0% | 0% | 10% | 0% |
| O=S(=O)([O-])CC[n+]1ccc2cc(Cl)ccc2n1 [Compound A88] | 30% | 40% | 20% | 60% | 70% | 50% | 50% | 20% | 40% |
| O=S(=O)([O-])CCCC[n+]1ccc2ccccc2n1 [Compound A25] | 50% | 60% | 0% | 30% | 50% | 60% | 20% | 50% | 30% |
| COC(=O)C[n+]1cc(C)c2cc(C)cc(C)c2n1 [Compound A3] | 20% | 10% | 0% | 20% | 20% | 0% | 0% | 10% | 10% |
| O=S(=O)([O-])CC[n+]1ccc2cc(F)ccc2n1 [Compound A82] | 30% | 70% | 20% | 60% | 90% | 60% | 40% | 40% | 30% |
| O=S(=O)([O-])CC[n+]1ccc2ccc(Cl)cc2n1 [Compound A94] | 40% | 90% | 40% | 100% | 100% | 90% | 50% | 40% | 50% |
| O=C(O)CC[n+]1ccc2ccccc2n1 [Compound A65] | 40% | 80% | 70% | 90% | 80% | 90% | 90% | 60% | 60% |
| C[C@H](CNS(=O)(=O)[O-])[n+]1ccc2ccccc2n1 [Compound A49] | 50% | 90% | 60% | 90% | 100% | 90% | 70% | 80% | 60% |
| O=S(=O)([O-])N1CCC[C@H]1C[n+]1ccc2ccccc2n1 [Compound A47] | 10% | 60% | 30% | 60% | 100% | 90% | 90% | 20% | 40% |
| CN(C)S(=O)(=O)[N-]C(=O)C[n+]1ccc2ccccc2n1 [Compound A21, (2-cinnolin-2-ium-2-ylacetyl)-(dimethylsulfamoyl)azanide] | 0% | 50% | 30% | 70% | 10% | 0% | 10% | 20% | 0% |
| C[C@@H](C[n+]1ccc2ccccc2n1)NS(=O)(=O)[O-] [Compound A45, N-[(1S)-2-cinnolin-2-ium-2-yl-1-methyl-ethyl]sulfamate] | 60% | 80% | 40% | 100% | 100% | 100% | 80% | 60% | 80% |
| COC(=O)CC[n+]1ccc2ccccc2n1 [Compound A61] | 10% | 60% | 60% | 70% | 70% | 90% | 80% | 60% | 50% |
| O=S(=O)([O-])CC[n+]1ccc2ccc(C(F)(F)F)cc2n1 [Compound A80] | 10% | 20% | 20% | 20% | 0% | 30% | 20% | 0% | 30% |
| Cc1c[n+](CCS(=O)(=O)[O-])nc2ccccc12 [Compound A11] | 0% | 100% | 60% | 80% | 100% | 80% | 40% | 80% | 70% |
